Experimental data reported in patent US20060084704A1, “Methods and compositions for enhancing degradation of nuclear receptor transcription factors and uses thereof” (priority 2004, published 2006).
“Also recorded” adds a separate entry of the source.

Tests used:
AR = molecular target: T1, AR (Homo sapiens, UniProt P10275, T878A); assay type: cell-based; details: LNCaP, JC9 5 micromolar about 20 hours, then cycloheximide 15 micrograms/milliliter
T1 construct: LNCaP cells express an endogenous mutant AR that is found in prostate cancer patients; host or cells: LNCaP
T1 sequence (P10275 1-920 T878A): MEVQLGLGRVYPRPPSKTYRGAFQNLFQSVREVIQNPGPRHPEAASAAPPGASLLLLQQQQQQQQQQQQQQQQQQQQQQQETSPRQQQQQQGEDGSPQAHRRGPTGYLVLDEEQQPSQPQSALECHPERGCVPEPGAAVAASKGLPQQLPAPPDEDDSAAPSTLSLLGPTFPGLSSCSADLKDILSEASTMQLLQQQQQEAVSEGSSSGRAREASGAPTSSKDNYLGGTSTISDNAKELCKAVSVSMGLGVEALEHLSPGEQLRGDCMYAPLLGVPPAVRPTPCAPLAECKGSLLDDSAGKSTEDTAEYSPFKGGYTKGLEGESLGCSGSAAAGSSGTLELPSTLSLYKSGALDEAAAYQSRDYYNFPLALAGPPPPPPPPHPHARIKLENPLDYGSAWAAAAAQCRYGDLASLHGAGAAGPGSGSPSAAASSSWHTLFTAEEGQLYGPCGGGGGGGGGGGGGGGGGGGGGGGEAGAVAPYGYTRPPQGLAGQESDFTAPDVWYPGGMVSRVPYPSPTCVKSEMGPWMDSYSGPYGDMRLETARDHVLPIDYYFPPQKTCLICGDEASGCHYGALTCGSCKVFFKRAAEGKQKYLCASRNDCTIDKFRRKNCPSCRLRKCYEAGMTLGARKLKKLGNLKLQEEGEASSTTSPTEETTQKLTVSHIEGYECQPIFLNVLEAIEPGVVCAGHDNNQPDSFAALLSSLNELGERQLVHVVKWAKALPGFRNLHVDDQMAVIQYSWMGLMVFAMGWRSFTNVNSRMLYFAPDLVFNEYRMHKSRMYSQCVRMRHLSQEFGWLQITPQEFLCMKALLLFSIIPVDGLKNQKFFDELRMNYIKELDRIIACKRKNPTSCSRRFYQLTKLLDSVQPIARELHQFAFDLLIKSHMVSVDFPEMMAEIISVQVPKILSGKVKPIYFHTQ
Procedure: To determine whether the observed reduction of AR protein levels was due to protein degradation rather than inhibition of AR protein synthesis, a second set of three replicate experiments was performed. […] In the absence of new AR protein synthesis, any alterations in AR levels would be mainly attributable to protein degradation. LNCaP cells were cultured, and incubated with JC9 (5 micromolar) for about 20 hours.

[1] = test system: testosterone-induced hair growth suppression; assay: Androgen-induced alopecia model, hair re-growth in shaved mice; assay type: in vivo, C57BL/6J mice; details: topical testosterone 1% in the morning, JC9 0.02% in the afternoon, 20 days
Procedure: C57BL/6J mice were used in this animal model for hair loss and regrowth (Uno et al. (1990) J. Cutaneous Aging & Cosm. Derm., 1: 193, which is incorporated by reference in its entirety herein). Six-week-old male mice (6 to 7 animals per group) were shaved with an electric clipper, and then treated with a hair-removal cream for 1 to 2 minutes. […] One day after hair removal, a first group of animals each received 100 microliters of a 1% testosterone solution in ethanol, applied topically to the shaved area, once each morning for twenty consecutive days. A second group of animals each received 100 microliters of vehicle (ethanol) alone, applied topically to the shaved area, once each morning for twenty consecutive days. The first group of mice (testosterone-treated) were divided further into a control group and a treatment group. Also beginning one day after hair removal, each mouse in the control group received 100 microliters of a control solution (60% ethanol, 20% propylene glycol, and 20% water) and each mouse in the treatment group received 100 microliters of the test compound, JC9 (0.02% in the same 60% ethanol, 20% propylene glycol, and 20% water solution), applied topically to the shaved area, once each afternoon for twenty consecutive days. Hair re-growth in the shaved areas was observed and photographed at 12, 15, 18, 21, and 24 days after beginning of the topical treatments.

## COc1ccc(C=CC(=O)C=C(O)C=Cc2ccc(OC)c(OC)c2)cc1OC [JC9, 5-hydroxy-1,7-bis(3,4-dimethoxyphenyl)-1,4,6-heptatrien-3-one]
AR
  time within which degradation of existing AR protein was enhanced: ≤ 4 h
[1]
  hair re-growth in shaved areas: rapid re-growth of hair in the shaved areas from day 10 to day 20; also recorded: hair growth on day 8 and fully re-growth of hair in the shaved areas after 20 days
